Assay results from patent US20090130188A9, “Acrylic pressure sensitive adhesives” (National Starch and Chemical Investment Holding Company, priority 2005, published 2009).
Like-named read-outs stand apart in the source and are kept apart here.

Experiments:
[1] = Cholesteryl dodecanoate added to adhesive solutions, mixed overnight at room temperature; assay type: physicochemical; conditions: 1% on a solids basis
Procedure: Cholesteryl dodecanoate, a model for a highly lipophilic drug, was added at 1% on a solids basis to the solutions of Example 7 and 8. These were then mixed overnight at room temperature.

[2] = Ketoprofen added to adhesive solutions, mixed overnight, dissolved vs dispersed; assay type: physicochemical; conditions: 15% on a solids basis
[3] = for state of ketoprofen in dried adhesive film: dried 30 minutes at 60° C.
[4] = film from conventional adhesive solution (Comparative Example 2)

Row | dissolution of model active in adhesive solution ([1]; solution of Example 8 (δ 19.4)) | dissolution of ketoprofen in adhesive solution ([2]; adhesive solution of Example 2 (δ 19.0), tube A) | enthalpy of fusion by DSC [3, 4] | state of ketoprofen in dried adhesive film [3, 4] | state of ketoprofen in dried adhesive film ([3]; film from cyclohexane adhesive solution (Example 1)) | SMILES | dissolution of model active in adhesive solution ([1]; solution of Example 7 (ethanol)) | dissolution of ketoprofen in adhesive solution ([2]; adhesive solution of Example 1 (cyclohexane, δ 16.8), tube B)
1 | completely soluble | – | – | – | – | CCCCCCCCCCCC(=O)O[C@H]1CC[C@@]2(C)C(=CC[C@H]3[C@@H]4CC[C@H]([C@H](C)CCCC(C)C)[C@@]4(C)CC[C@@H]32)C1 [Cholesteryl dodecanoate] | large quantity of undissolved model active | –
2 | – | completely dissolved | zero | no visible crystals | undissolved crystals | CC(C(=O)O)c1cccc(C(=O)c2ccccc2)c1 (stereo not shown) [ketoprofen] | – | most of the ketoprofen remained as a dispersed solid
